# Source: ChEMBL document CHEMBL1201862, “PubChem BioAssay data set” (2004)
# Activity calls are given as the source filed them. Rule as the data show it, for most assays here: actives have a measured EC50 and inactives only a lower limit.
# Experiments:
# [1] = biological target: ATP-dependent molecular chaperone HSP82 (Candida albicans (strain WO-1) (Yeast), UniProt C4YTQ8); assay: loss of DOC-induced GRE-beta-galactosidase reporter signal, dose response, Hsp90 inhibitor project, S. cerevisiae, luminescence (AID 2400); assay type: functional, cell-based;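 also: beta-galactosidase luminescence from glucocorticoid response element reporter as proxy for Hsp90 function; inhibitor potency where signal loss means Hsp90 inhibition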
# [2] = C. albicans growth with fluconazole, confirmation, fluorescence, retest (AID 2467); assay type: functional, cell-based
# [3] = biological target: T1, Serine/threonine-protein phosphatase (Candida dubliniensis (strain CD36 / CBS 7987 / NCPF 3949 / NRRLY-17841) (Yeast), UniProt B9W6M3); assay: calcineurin pathway inhibitors in yeast reporter, dose response, S. cerevisiae, CDRE-lacZ, luminescence, secondary (AID 2388); assay type: functional, cell-based;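 also: yeast reporter cells carrying a calcineurin-responsive lacZ construct stimulated with calcium chloride; luminescent beta-galactosidase reporter signal in whole cells rather than isolated phosphatase activity; potency for inhibition where a drop in reporter signal means calcineurin blockade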
# T1 sequence (B9W6M3 whole entry): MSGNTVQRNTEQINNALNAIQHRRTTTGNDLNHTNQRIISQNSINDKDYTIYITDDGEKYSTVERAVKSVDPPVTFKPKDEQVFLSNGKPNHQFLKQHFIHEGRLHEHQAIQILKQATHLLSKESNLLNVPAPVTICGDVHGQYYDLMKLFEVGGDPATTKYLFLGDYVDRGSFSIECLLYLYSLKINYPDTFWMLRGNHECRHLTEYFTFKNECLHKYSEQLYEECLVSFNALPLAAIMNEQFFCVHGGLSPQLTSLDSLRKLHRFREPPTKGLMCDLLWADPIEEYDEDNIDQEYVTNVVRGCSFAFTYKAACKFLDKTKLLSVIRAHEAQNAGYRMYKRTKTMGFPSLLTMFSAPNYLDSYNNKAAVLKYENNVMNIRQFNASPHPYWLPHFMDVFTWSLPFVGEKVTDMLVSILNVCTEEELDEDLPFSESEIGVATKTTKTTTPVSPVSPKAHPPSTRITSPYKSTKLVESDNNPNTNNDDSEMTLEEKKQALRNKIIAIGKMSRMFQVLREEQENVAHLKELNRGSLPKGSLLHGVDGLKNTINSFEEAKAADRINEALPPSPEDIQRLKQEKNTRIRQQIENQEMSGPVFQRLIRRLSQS
# [4] = NIH-3T3 fibroblast cytotoxicity, dose response, cytotoxicity control, cell-based, fluorescence, Alamar Blue, secondary assay (AID 2327); assay type: functional;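 also: NIH-3T3 mouse fibroblasts cultured with fluconazole at 8 µg/mL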
# [5] = cytotoxicity toward NIH3T3 fibroblasts, dose response, counter-screen, cell-based, ATP luminescence, mouse fibroblasts (AID 2010); assay type: functional;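 also: cells exposed to compound for about 90 hours before reading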
# [6] = inhibitors of intracellular T. cruzi replication, confirmation, NIH3T3 host cells, beta-gal luminescence (AID 2044); assay type: functional, cell-based;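 also: intracellular parasites grown in NIH/3T3 mouse fibroblasts as host cells; luminescent beta-galactosidase reporter signal from transgenic T. cruzi replicating inside host cells; inhibitors lower the luminescence signal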
# Protein Wnt-3a = Protein Wnt-3a (Mus musculus, UniProt P27467); assay: Wnt3a-driven reporter signaling inhibition, dose response, selectivity assay for Gli-SUFU antagonist project, Wnt-LIGHT cells, luminescence (AID 651570); assay type: functional; settings: read-out: IC50_Mean;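 also: Wnt-LIGHT reporter cells stimulated with conditioned medium from Wnt3a-producing cells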
# Streptokinase A = biological target: T2, Streptokinase A (Streptococcus pyogenes serotype M1, UniProt P10520); assay: S. pyogenes streptokinase expression inhibitors, potency, dose response, plasminogen activation absorbance, OD405 (AID 1914); assay type: functional, Streptococcus pyogenes M1 GAS;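 also: secreted streptokinase activity via plasminogen activation per viability signal from cell pellet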
# T2 sequence (P10520 whole entry): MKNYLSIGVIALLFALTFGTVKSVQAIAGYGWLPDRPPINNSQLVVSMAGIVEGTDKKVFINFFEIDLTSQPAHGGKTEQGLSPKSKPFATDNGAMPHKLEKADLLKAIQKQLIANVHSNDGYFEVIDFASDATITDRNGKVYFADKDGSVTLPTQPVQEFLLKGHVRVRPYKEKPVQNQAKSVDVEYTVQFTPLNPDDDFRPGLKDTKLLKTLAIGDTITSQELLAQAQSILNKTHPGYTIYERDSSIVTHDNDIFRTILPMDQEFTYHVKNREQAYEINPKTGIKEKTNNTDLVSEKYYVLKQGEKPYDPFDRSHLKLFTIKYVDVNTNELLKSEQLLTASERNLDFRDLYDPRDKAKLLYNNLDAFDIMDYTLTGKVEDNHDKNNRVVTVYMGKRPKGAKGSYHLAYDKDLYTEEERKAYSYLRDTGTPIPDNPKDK
# INS1 = assay: beta cell apoptosis inhibitors, cytokine rescue, dose response, luminescence, retest (AID 449756); assay type: functional, cell-based; settings: Rattus norvegicus;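 also: cell death triggered by IL-1 beta plus TNF-alpha plus IFN-gamma mixture; protective hits raise ATP signal compared with cytokine alone wells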
# [7] = test system: Streptococcus sp. 'group A'; assay: growth inhibition of control SK(-) GAS strain, dose response, counter-screen for streptokinase expression inhibitor project, luminescence, kanamycin, BacTiterGlo, confirmation (AID 1900); assay type: functional, organism-based
# Streptococcus = assay: Group A Streptococcus viability loss, dose response, counter-screen for streptokinase expression inhibitor project, luminescence, BacTiterGlo (AID 1915); assay type: functional, organism-based;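 also: potency for reduction of bacterial viability or growth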
# [8] = biological target: T3, High affinity choline transporter 1 (Homo sapiens, UniProt Q9GZV3); assay: CHT inhibitors, dose response, cell-based, 5-point CRC, membrane potential dye (AID 504840); assay type: functional
# T3 sequence (Q9GZV3 whole entry): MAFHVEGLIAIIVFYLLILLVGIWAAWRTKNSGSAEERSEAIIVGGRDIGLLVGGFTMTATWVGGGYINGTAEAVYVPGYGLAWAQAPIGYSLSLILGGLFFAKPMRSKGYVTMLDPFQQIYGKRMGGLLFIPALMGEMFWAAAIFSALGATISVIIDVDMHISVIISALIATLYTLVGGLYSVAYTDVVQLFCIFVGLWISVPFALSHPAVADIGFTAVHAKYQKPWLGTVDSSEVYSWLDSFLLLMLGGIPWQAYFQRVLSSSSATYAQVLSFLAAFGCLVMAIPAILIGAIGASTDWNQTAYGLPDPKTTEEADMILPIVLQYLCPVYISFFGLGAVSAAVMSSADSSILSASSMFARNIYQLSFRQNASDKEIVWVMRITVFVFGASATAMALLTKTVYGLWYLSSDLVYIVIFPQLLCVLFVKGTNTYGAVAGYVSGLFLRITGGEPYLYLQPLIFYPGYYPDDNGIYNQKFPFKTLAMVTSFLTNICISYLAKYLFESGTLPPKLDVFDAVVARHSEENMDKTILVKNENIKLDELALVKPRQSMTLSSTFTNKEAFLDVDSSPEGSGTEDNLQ
# [9] = HepG2 cell cytotoxicity, dose response, cytotoxicity control for Shn3 inhibitor project, CellTiter-Glo, cherry-picked (AID 624134); assay type: functional, cell-based
# [10] = Shn3 3'UTR reporter inhibitors, dose response, cell-based, Clone20 osteoblasts, firefly luciferase, cherry-picked (AID 624132); assay type: functional;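 also: firefly luciferase luminescence from reporter carrying the Shn3 3'UTR in osteoblasts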
# [11] = control 3'UTR Renilla luciferase suppression, dose response, counter-screen for Shn3 inhibitor project, cell-based, Clone20-Shn3RL, cherry-picked (AID 624133); assay type: functional
# Chain of Protein Wnt-3a (P27467 whole entry): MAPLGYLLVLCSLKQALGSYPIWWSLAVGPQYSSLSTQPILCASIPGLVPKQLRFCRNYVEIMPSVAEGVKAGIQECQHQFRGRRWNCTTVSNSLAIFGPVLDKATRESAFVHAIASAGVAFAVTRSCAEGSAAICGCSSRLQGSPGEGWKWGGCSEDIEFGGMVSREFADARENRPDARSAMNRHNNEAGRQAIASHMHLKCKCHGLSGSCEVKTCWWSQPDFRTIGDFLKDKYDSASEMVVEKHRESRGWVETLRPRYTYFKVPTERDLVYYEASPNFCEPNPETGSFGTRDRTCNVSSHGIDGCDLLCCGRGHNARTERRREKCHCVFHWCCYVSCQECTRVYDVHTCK
# Chain of ATP-dependent molecular chaperone HSP82 (C4YTQ8 whole entry): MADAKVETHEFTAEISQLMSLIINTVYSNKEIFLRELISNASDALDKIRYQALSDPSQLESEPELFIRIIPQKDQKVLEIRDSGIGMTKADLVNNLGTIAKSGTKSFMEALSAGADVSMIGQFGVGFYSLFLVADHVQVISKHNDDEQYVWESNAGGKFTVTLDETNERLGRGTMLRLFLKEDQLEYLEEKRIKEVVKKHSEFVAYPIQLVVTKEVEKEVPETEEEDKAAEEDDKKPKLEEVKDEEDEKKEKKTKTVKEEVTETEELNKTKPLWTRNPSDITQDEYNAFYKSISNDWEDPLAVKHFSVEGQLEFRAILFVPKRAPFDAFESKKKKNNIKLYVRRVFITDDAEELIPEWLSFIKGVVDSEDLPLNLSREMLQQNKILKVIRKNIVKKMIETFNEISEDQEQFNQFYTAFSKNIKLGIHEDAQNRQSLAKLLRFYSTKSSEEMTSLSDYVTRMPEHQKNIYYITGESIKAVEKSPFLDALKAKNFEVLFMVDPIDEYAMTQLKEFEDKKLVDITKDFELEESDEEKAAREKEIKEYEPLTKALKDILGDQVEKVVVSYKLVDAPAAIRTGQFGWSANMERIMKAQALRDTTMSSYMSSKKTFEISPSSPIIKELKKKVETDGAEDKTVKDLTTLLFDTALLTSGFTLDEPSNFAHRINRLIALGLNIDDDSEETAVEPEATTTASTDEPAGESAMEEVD
SMILES,EC50 [1],EC50 [2],EC50 [3],EC50 [4],IC50 (Protein Wnt-3a),other results
O=C(c1ccc(Cn2c(=O)[nH]c3ccccc3c2=O)cc1)N1CCN(c2ccc(F)cc2)CC1,> 150 µM (inactive),0.912 µM (active),> 180 µM (inactive),14.3 µM (active),,
CCCc1c(CC)c(=N)c2ccccc2n1C,,,,,11.3 µM (active),EC50 [5]: > 60 µM (not active); EC50 [6]: 0.121 µM (active)
CC(C)C(=O)NC(c1cccs1)c1cc([N+](=O)[O-])c2cccnc2c1O (stereo not drawn),24.6 µM (active),0.242 µM (active),> 180 µM (inactive),13.4 µM (active),,EC50 (Streptokinase A): > 150 µM (not active); AC50 (INS1): 3.87 µM (active); EC50 [7]: 2.59 µM (active); EC50 (Streptococcus): 6.98 µM (active)
O=C(Nc1ccc(C(F)(F)F)cc1)C1CCN(S(=O)(=O)c2ccc(N3CCCC3=O)cc2)CC1,,,,,2.18 µM (active),AC50 (INS1): 3.1 µM (active)
O=C(Nc1nnc(CCc2ccccc2)s1)c1ccco1,> 150 µM (inactive),1.08 µM (active),> 180 µM (inactive),> 150 µM (inactive),,
C[C@@H]1COC(=O)[C@H](NC(=O)OCC2c3ccccc3-c3ccccc32)C/C=C\C[C@@H](CC(=O)N[C@@H](CO)Cc2ccccc2)C(=O)N1,,,,,12.3 µM (active),
O=C(N/N=C/c1cc2ccccc2nc1Cl)[C@H]1C[C@@H]1c1ccccc1,,,,,39.9 µM (inactive),
Cn1c(N2CCOCC2)c(/C=N/OC(=O)c2ccc(F)cc2)c2ccccc21,> 160 µM (inactive),0.382 µM (active),> 180 µM (inactive),> 160 µM (inconclusive),,IC50 [8]: 15.9 µM (active); EC50 [5]: 1.98 µM (active); EC50 [6]: 0.596 µM (active)
Sc1nnc(C2CCCCC2)n1/N=C/c1ccc(Br)s1,18.9 µM (active),1.07 µM (active),> 180 µM (inactive),> 150 µM (inactive),,
C[C@@H]1CC[C@@]2(NC1)O[C@H]1C[C@H]3[C@@H]4CC=C5C[C@@H](O)CC[C@]5(C)[C@H]4CC[C@]3(C)[C@H]1[C@@H]2C,> 160 µM (inactive),0.272 µM (active),> 180 µM (inactive),> 160 µM (inconclusive),,
CCC(=O)NC(c1ccco1)c1cc(Cl)c2cccnc2c1O (stereo not drawn),> 150 µM (inactive),0.56 µM (active),> 180 µM (inactive),24.9 µM (active),,EC50 [5]: 7.21 µM (active); AC50 [9]: 7.81 µM (active); EC50 [6]: 1.97 µM (active); AC50 [10]: 1.31 µM (active); AC50 [11]: 3.57 µM (active)
Cc1cc(C)c[n+](C(C)C(=O)c2ccc(-c3ccccc3)cc2)c1 (stereo not drawn),,,,,8.95 µM (active),
